From PubChem BioAssay (NCI)
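The compound was tested at five concentrations on cells cultured in 96-well plates, with a 48-hour exposure period. TGI: total growth inhibition.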

How the values were obtained:
Assay in all cases: NCI tumour cell line growth inhibition, 48 h
[1] = system: 786-0 renal
[2] = system: A498 renal
[3] = system: A549 NSCLC
[4] = system: ACHN renal
[5] = system: BT-549 breast
[6] = system: CAKI-1 renal
[7] = system: CCRF-CEM leukemia
[8] = system: COLO 205 colon
[9] = system: DU-145 prostate
[10] = system: EKVX NSCLC
[11] = system: HCC-2998 colon
[12] = system: HCT-116 colon
[13] = system: HCT-15 colon
[14] = system: HL-60(TB) leukemia
[15] = system: HOP-62 NSCLC
[16] = system: HOP-92 NSCLC
[17] = system: HS 578T breast
[18] = system: HT29 colon
[19] = system: IGROV1 ovarian
[20] = system: K-562 leukemia
[21] = system: KM12 colon
[22] = system: LOX IMVI melanoma
[23] = system: M14 melanoma
[24] = system: MALME-3M melanoma
[25] = system: MCF7 breast
[26] = system: MDA-MB-231 breast
[27] = system: MDA-MB-435
[28] = system: MDA-N
[29] = system: MOLT-4 leukemia
[30] = system: NCI-H226 lung
[31] = system: NCI-H23 lung
[32] = system: NCI-H460 lung
[33] = system: NCI-H522 lung
[34] = system: NCI/ADR-RES ovarian
[35] = system: OVCAR-3 ovarian
[36] = system: OVCAR-4 ovarian
[37] = system: OVCAR-5 ovarian
[38] = system: OVCAR-8 ovarian
[39] = system: PC-3 prostate
[40] = system: RPMI-8226 leukemia
[41] = system: RXF 393 renal
[42] = system: SF-268 CNS
[43] = system: SF-295 CNS
[44] = system: SF-539 CNS
[45] = system: SK-MEL-2 melanoma
[46] = system: SK-MEL-28 melanoma
[47] = system: SK-MEL-5 melanoma
[48] = system: SK-OV-3 ovarian
[49] = system: SN12C renal
[50] = system: SNB-19 CNS
[51] = system: SNB-75 CNS
[52] = system: SR leukemia
[53] = system: SW-620 colon
[54] = system: T-47D breast
[55] = system: TK-10 renal
[56] = system: U251 CNS
[57] = system: UACC-257 melanoma
[58] = system: UACC-62 melanoma
[59] = system: UO-31 renal

SMILES: O=C(/C=C/c1cccc(Br)c1)c1ccc(Cl)cc1
- TGI [1]: 28.3 µM
- TGI [2]: 26.5 µM
- TGI [3]: 33.5 µM
- TGI [4]: 30.4 µM
- TGI [5]: 31.9 µM
- TGI [6]: 40.1 µM
- TGI [7]: 24.9 µM
- TGI [8]: 30.9 µM
- TGI [9]: 30.3 µM
- TGI [10]: 29.7 µM
- TGI [11]: 33.7 µM
- TGI [12]: 18 µM
- TGI [13]: 31.1 µM
- TGI [14]: 44.5 µM
- TGI [15]: 35.9 µM
- TGI [16]: 31.7 µM
- TGI [17]: 57.3 µM
- TGI [18]: 24.5 µM
- TGI [19]: 35.8 µM
- TGI [20]: 45.7 µM
- TGI [21]: 32.5 µM
- TGI [22]: 28 µM
- TGI [23]: 28.1 µM
- TGI [24]: 29 µM
- TGI [25]: 16.3 µM
- TGI [26]: 35.2 µM
- TGI [27]: 25.5 µM
- TGI [28]: 20 µM
- TGI [29]: 77.8 µM
- TGI [30]: 33.7 µM
- TGI [31]: 32.7 µM
- TGI [32]: 37.3 µM
- TGI [33]: 30.5 µM
- TGI [34]: 59.2 µM
- TGI [35]: 32.3 µM
- TGI [36]: 32.1 µM
- TGI [37]: 30.6 µM
- TGI [38]: 32.1 µM
- TGI [39]: 28.2 µM
- TGI [40]: 6.31 µM
- TGI [41]: 35.5 µM
- TGI [42]: 34.1 µM
- TGI [43]: 32.6 µM
- TGI [44]: 30.4 µM
- TGI [45]: 29.3 µM
- TGI [46]: 29.1 µM
- TGI [47]: 27.2 µM
- TGI [48]: 43.6 µM
- TGI [49]: 32.4 µM
- TGI [50]: 30.1 µM
- TGI [51]: 28.1 µM
- TGI [52]: 20.4 µM
- TGI [53]: 13.3 µM
- TGI [54]: 32.1 µM
- TGI [55]: 27.2 µM
- TGI [56]: 18.6 µM
- TGI [57]: 32.1 µM
- TGI [58]: 29 µM
- TGI [59]: 29.3 µM

SMILES: COc1ccc(-c2cc(-c3ccccc3)nc(/N=C\c3ccccc3)n2)c(O)c1
- TGI [1]: > 100 µM
- TGI [2]: > 100 µM
- TGI [3]: > 100 µM
- TGI [4]: > 100 µM
- TGI [5]: > 100 µM
- TGI [6]: 8.39 µM
- TGI [7]: > 100 µM
- TGI [8]: > 100 µM
- TGI [9]: > 100 µM
- TGI [10]: > 100 µM
- TGI [11]: > 100 µM
- TGI [12]: > 100 µM
- TGI [13]: > 100 µM
- TGI [14]: > 35.4 µM
- TGI [15]: > 100 µM
- TGI [16]: > 100 µM
- TGI [17]: > 100 µM
- TGI [18]: > 100 µM
- TGI [19]: > 100 µM
- TGI [20]: > 100 µM
- TGI [21]: > 100 µM
- TGI [22]: > 100 µM
- TGI [23]: > 100 µM
- TGI [24]: > 100 µM
- TGI [25]: > 100 µM
- TGI [26]: > 100 µM
- TGI [27]: > 100 µM
- TGI [28]: > 100 µM
- TGI [29]: > 100 µM
- TGI [30]: > 100 µM
- TGI [31]: > 100 µM
- TGI [32]: > 100 µM
- TGI [33]: > 100 µM
- TGI [34]: > 100 µM
- TGI [35]: > 100 µM
- TGI [36]: > 100 µM
- TGI [37]: > 100 µM
- TGI [38]: > 100 µM
- TGI [39]: > 100 µM
- TGI [40]: 5.71 µM
- TGI [41]: > 100 µM
- TGI [42]: > 100 µM
- TGI [43]: > 100 µM
- TGI [44]: > 100 µM
- TGI [45]: > 100 µM
- TGI [46]: > 100 µM
- TGI [47]: > 100 µM
- TGI [48]: > 100 µM
- TGI [49]: > 100 µM
- TGI [50]: > 100 µM
- TGI [51]: > 100 µM
- TGI [52]: > 24.1 µM
- TGI [53]: > 100 µM
- TGI [54]: > 100 µM
- TGI [55]: > 100 µM
- TGI [56]: > 100 µM
- TGI [57]: > 100 µM
- TGI [58]: > 100 µM
- TGI [59]: > 100 µM

SMILES: N=[N+]=NC1C(O)C(CO)OC1n1cnc2c(N)ncnc21 (configuration not stated)
- TGI [1]: > 100 µM
- TGI [2]: > 100 µM
- TGI [3]: > 100 µM
- TGI [4]: 52.6 µM
- TGI [5]: > 100 µM
- TGI [6]: > 100 µM
- TGI [7]: > 29.8 µM
- TGI [8]: > 100 µM
- TGI [9]: > 100 µM
- TGI [10]: > 100 µM
- TGI [11]: > 100 µM
- TGI [12]: > 100 µM
- TGI [13]: > 100 µM
- TGI [14]: 6.44 µM
- TGI [15]: > 100 µM
- TGI [16]: > 100 µM
- TGI [17]: > 100 µM
- TGI [18]: > 100 µM
- TGI [19]: > 100 µM
- TGI [20]: > 100 µM
- TGI [21]: > 100 µM
- TGI [22]: > 83.5 µM
- TGI [23]: > 100 µM
- TGI [24]: > 100 µM
- TGI [25]: > 100 µM
- TGI [26]: > 100 µM
- TGI [27]: > 100 µM
- TGI [28]: > 100 µM
- TGI [29]: > 22.4 µM
- TGI [30]: 97.4 µM
- TGI [31]: > 80 µM
- TGI [32]: > 100 µM
- TGI [33]: > 100 µM
- TGI [34]: > 100 µM
- TGI [35]: > 100 µM
- TGI [36]: > 100 µM
- TGI [37]: > 100 µM
- TGI [38]: > 100 µM
- TGI [39]: > 100 µM
- TGI [40]: > 100 µM
- TGI [41]: > 100 µM
- TGI [42]: > 100 µM
- TGI [43]: > 100 µM
- TGI [44]: > 76.2 µM
- TGI [45]: > 100 µM
- TGI [46]: > 100 µM
- TGI [47]: > 100 µM
- TGI [48]: > 100 µM
- TGI [49]: > 100 µM
- TGI [50]: > 100 µM
- TGI [51]: > 100 µM
- TGI [52]: 7 µM
- TGI [53]: > 100 µM
- TGI [54]: > 100 µM
- TGI [55]: > 100 µM
- TGI [56]: > 100 µM
- TGI [57]: > 100 µM
- TGI [58]: > 100 µM
- TGI [59]: > 100 µM
